The values that follow come from paper PMC12715507, “CARF-HAD phosphatase effectors provide immunity during the type III-A CRISPR–Cas response” (Nucleic Acids Research, 2025).

The target in this assay is T1, BbChp.
T1 construct: CARF domain (307–528), N-terminal 6xHis
Kind of assay: thermal shift assay (DSF) titration, Tm […] to […] °C. Type of assay: binding, Bacteroidales bacterium.

As a reminder, the Kd is the free concentration of one partner at which half of the binding sites on the other are occupied at equilibrium, for simple one-to-one binding. Consider `Nc1ncnc2c1ncn2[C@@H]1O[C@@H]2COP(=O)(O)O[C@H]3[C@@H](O)[C@H](n4cnc5c(N)ncnc54)O[C@@H]3COP(=O)(O)O[C@H]3[C@@H](O)[C@H](n4cnc5c(N)ncnc54)O[C@@H]3COP(=O)(O)O[C@H]3[C@@H](O)[C@H](n4cnc5c(N)ncnc54)O[C@@H]3COP(=O)(O)O[C@H]2[C@H]1O` [cA4], for which the Kd worked out at 273 nM.
